Legend:
[1] = test system: multiple myeloma cell line L363; assay: L363 cell viability, nirogacestat pre-treatment then belantamab mafodotin or controls; assay type: cell-based; conditions: nirogacestat pre-treatment 24 hours, then treatment for additional 72 hours
[2] = cited from earlier work
[3] = cited from earlier work; remark: listed apart in the source

Row | Compound | effect on cell viability [1] | time to pharmacodynamically active plasma levels ([2]; after treatment initiation) [h] | exposure versus dose ([2]; between 20 and 330 mg BID) | time to steady-state ([2]; repeated BID administration) [days] | incidence of dose-limiting diarrhea and elevated liver enzymes ([3]; compared with RO4929097 or MK-0752 (Messersmith, 2015)) | safety profile versus other gamma-secretase inhibitors ([3]; in vivo) | incidence of secondary primary malignancies (SPM) or treatment-emergent infections ([3]; unlike e.g. semagacestat (Messersmith, 2015; Henley, 2014))
1 | Belantamab | no effect |  |  |  |  |  | 
2 | CCC[C@H](N[C@H]1CCc2cc(F)cc(F)c2C1)C(=O)Nc1cn(C(C)(C)CNCC(C)(C)C)cn1 [nirogacestat, (S)-2-(((S)-6,8-difluoro-1,2,3,4-tetrahydronaphthalen-2-yl)amino)-N-(1-(2-methyl-1-(neopentylamino)propan-2-yl)-1H-imidazol-4-yl)pentanamide] | no effect | < 48 | dose-proportional | ≤ 8 | does not appear to be as high | better safety profile | there does not seem to be an increased incidence

— US12570752B2, “Combination therapy with an anti BCMA antibody and a gamma secretase inhibitor” (priority 2019, dated 2026)
